From patent publication US20100280098A1, “RECEPTOR TARGETED OLIGONUCLEOTIDES” (priority 2007, published 2010)
Entries after “also recorded” stand apart in the source; their conditions may differ.

Experiments:
αvβ3 = test: Cell surface αvβ3 level by immunostaining and flow cytometry; type: cell-based, human; conditions: 200 nM, 24 h exposure
Protocol: Then, αvβ3 levels were determined by immunostaining with anti-αvβ3 antibody. […] The y axis of each panel indicates the number of cells, while the x axis indicates the log of fluorescence intensity.
(§1) Cell Uptake, Confocal Fluorescence Microscopy, and Flow Cytometry: Total cellular uptake of Tamra-labeled oligonucleotides was monitored using a Nanodrop microfluorimeter (Nanodrop Technologies, Wilmington, Del., United States of America). After treatment with oligonucleotides the cells were lysed in a mild non-ionic detergent buffer and the Tamra fluorescence (emission 583 nm) was quantitated based on a linear standard curve of unconjugated Tamra in buffer. Intracellular distribution of Tamra-labeled oligonucleotides was examined using an Olympus Confocal FV300 fluorescent microscope (Olympus America Inc., Center Valley, Pa., United States of America) with 60X-oil immersion objective, as previously described. See Astriab-Fisher et al. (2004) Biochem. Pharmacol., 68, 403-407. Expression levels of αvβ3 were monitored by immunostaining with an anti-human-αvβ3 monoclonal (Chemicon, Temecula, Calif., United States of America) followed by an Alexa 488 rabbit antimouse secondary antibody, with analysis by flow cytometry using a DakoCytomation (Glostrop, Denmark) machine.

A375SM-Luc705-B cells [1] = test: Subcellular distribution and co-localization by confocal fluorescence microscopy (peptide conjugate); type: cell-based; conditions: for co-localization with dextran / co-localization with transferrin: 2 h; for co-localization with dextran / co-localization with transferrin / co-localization with transferrin or dextran markers: live cells, 100 nM; for co-localization with transferrin or dextran markers: 24 h
Excerpt: as §1

A375SM-Luc705-B cells [2] = test: Short-term toxicity, viable cell count after 48 h (peptide conjugate); type: cell-based; conditions: for short-term toxicity (viable cells): concentrations up to 1000 nM, 48 h
Protocol: Toxicity Studies: Cells were treated with various concentrations of oligonucleotides or conjugates under the same conditions as used for the luciferase induction experiments. After 48 h in medium plus 1% FBS, cells were trypsinized and viable cells were counted in an electronic particle counter.

Micrococcal nuclease = Micrococcal nuclease (Staphylococcus aureus, UniProt P00644); test: Nuclease stability by polyacrylamide gel; type: in vitro ADME; conditions: 0-12 h, 37° C.
Protocol: The reactions were then stopped by the addition of EDTA (50 mM), and the fluorescent samples were analyzed on 10% polyacrylamide gels and examined under long-wavelength ultraviolet illumination to detect possible nucleolytic cleavage of the Tamra-labeled oligonucleotides.

A375SM-Luc705-B cells [3] = test: Confocal microscopy of live cells, albumin conjugates; type: cell-based; conditions: 100 nM, 24 h
Protocol: Cellular Uptake and Confocal Microscopy: Cells were seeded onto either 12 well plates at 1×10^5 cells per well for cellular uptake measurements or in 12 well glass-bottom plates at 2×10^4 cells per well for live cell analysis by confocal microscopy. After treatment of cells with Tamra labeled oligonucleotide derivatives for 24 h, the cells were either lysed for measurement of Tamra fluorescence using a Nanodrop microfluorimeter (Nanodrop Technologies, Wilmington, Deleware, United States of America) or washed with DMEM containing 10% FBS and then placed in DMEM without phenol red, supplemented with 1% FBS, for confocal microscopy analysis. Co-localization of Tamra-labeled oligonucleotides with Alexa 488 labeled Transferrin or Dextran (Molecular Probes, Beaverton, Oreg., United States of America) in live cell was also examined by confocal microscopy. An Olympus confocal microscope with a 60× objective lens was used, and the data were processed using Fluoview software (Olympus, Center Valley, Pa., United States of America) as described in Example 1.

A375SM-Luc705-B cells [4] = test: Luciferase splice-correction assay with peptide-oligonucleotide conjugates; type: cell-based
Protocol: Cell Lines and Plasmids: A375SM melanoma cells were obtained from Dr. J. Bear (University of North Carolina, Chapel Hill, N.C., United States of America), and were cultured in Dulbecco's minimum essential medium (DMEM; Invitrogen, Carlsbad, Calif., United States of America) supplemented with L-glutamine and 10% fetal bovine serum (FBS). Plasmid pLuc/705, containing an aberrant intron inserted into the firefly luciferase coding sequence, was obtained from Dr. R. Kole (University of North Carolina, Chapel Hill, N.C., United States of America). See Kang et al. (1998) Biochemistry, 37, 6235-6239. Stable transfectants were obtained by cotransfecting A375SM cells with one part of hygromycin resistant plasmid pcDNA3.1(+)/hygro (Invitrogen, Carlsbad, Calif., United States of America) and ten parts of pLuc/705 using LIPOFECTAMINE™ 2000 (Invitrogen, Carlsbad, Calif., United States of America) as per manufacturer's instructions. Selection was carried out in DMEM containing 200 μg/mL hygromycin and 10% FBS. The resulting pool of hygromycin resistant cells was referred to as A375SM-Luc705-B.
Oligonucleotide treatment and luciferase assay: A375SM-Luc705-B cells were plated on 12 well plates (at 1.0 or 1.5×10^5 cells per well in various experiments) in DMEM supplemented with 10% FBS. The following day, medium was changed to reduced serum OPTI-MEM I (Invitrogen, Carlsbad, Calif., United States of America). […] Four hours after treatment, 1% FBS was added to each well. Twenty four hours after oligonucleotide treatment, medium was replaced with DMEM containing 1% FBS, and at various times thereafter cell lysates were collected for luciferase assay.
Cells were usually harvested 48 hours after oligonucleotide treatment, or at times indicated in the figures, and activity determined using a Luciferase assay kit (Promega, Madison, Wis., United States of America). Measurements were performed on a Monolight 2010 instrument (Analytical Luminescence Laboratory, San Diego, Calif., United States of America).

A375SM-Luc705-B cells [5] = test: Total cellular uptake of Tamra-labeled oligonucleotides (microfluorimeter); type: cell-based; conditions: 12.5, 50 or 100 nM, 4 h
Excerpt: as §1

[6] = system: αvβ3-positive M21+ human melanoma cells; test: Total cellular uptake in αvβ3-positive cells; type: cell-based; conditions: 12.5-100 nM
Excerpt: (§2) Results represent means and standard errors of triplicate determinations and are expressed as RFUs per microgram cell protein.
as §1

[7] = system: αvβ3-negative M21− human melanoma cells; test: Total cellular uptake in αvβ3-negative cells; type: cell-based; conditions: 12.5-100 nM
Excerpt: as §2, §1

[8] = Re-dissolution of lyophilized conjugate in sterile water; type: physicochemical; conditions: after dialysis and lyophilization
Excerpt: The peptide conjugation reaction occurred between the maleimide of the bicyclic RGD peptide and the 5′ thiol (—SH) of the oligonucleotide (2). The reaction proceeded efficiently and more than 95% of the starting oligonucleotide (2) was converted into conjugates with bicyclic RGD. The conjugates were purified by ion-exchange chromatography (Resource™ Q column, GE Healthcare, Chalfont St. Giles, United Kingdom) under highly denaturing conditions to avoid any sort of precipitation, although this was not expected to be a problem for this type of peptide. […] Similar approaches were used for the preparation of other oligonucleotides and conjugates. In each case the structure of the final product was confirmed by MALDI-TOF mass spectroscopy.

[9] = living cells, 200 nM, complex 100 nM
[10] = listed as RGD-623-Tamra conjugate

## 5′-GTTATTCTTTAGAATGGTGC-Tamra-3′ [623-Tamra]
αvβ3
  level of surface αvβ3 expression: no effect
A375SM-Luc705-B cells [1]; [9]
  cellular uptake seen by confocal microscopy: relatively little uptake was observed; also recorded: Very little fluorescence related to cellular uptake of Tamra was observed
A375SM-Luc705-B cells [2]
  short-term toxicity (viable cells): little effect
Micrococcal nuclease
  stability to micrococcal nuclease: gradual degradation
A375SM-Luc705-B cells [3]
  intracellular Tamra fluorescence: less intracellular fluorescene
  nuclear accumulation of Tamra fluorescence: No Tamra fluorophore appeared to have accumulated in nuclei
A375SM-Luc705-B cells [3]; listed as 623 Tamra
  nuclear accumulation of Tamra fluorescence: no evidence of nuclear accumulation

## BivalentRGD-Mal-S—(CH2)6-623-Tamra [RGD-623-Tamra]
A375SM-Luc705-B cells [4]
  concentration dependence of the luciferase effect: rises rapidly between zero and 100 nM and then begins to plateau
A375SM-Luc705-B cells [4]; 200 nM, 48 h after removal of the oligonucleotide
  time of maximum effect on luciferase expression: 72 h
A375SM-Luc705-B cells [4]; 24-120 h, conjugate 200 nM, complex 100 nM
  time course of the effect on luciferase expression: rose gradually with time
A375SM-Luc705-B cells [4]; 48 h
  concentration at which substantial effects on luciferase were observed: 50 nM
  low concentration at which significant effects were still observed: 5 nM
A375SM-Luc705-B cells [4]; dose-response and mismatch control studies, luciferase after 48 h
  luciferase expression: produced a significant increase in luciferase expression
A375SM-Luc705-B cells [4]; higher concentrations of RGD-623, complex at 100 nM oligonucleotide
  effect on luciferase relative to 623/cationic lipid complex: approximately 50%
A375SM-Luc705-B cells [5]
  total cellular uptake compared to unconjugated oligonucleotide: ~2 fold
[6]
  uptake by M21+ cells as compared to M21− cells: about 3 times
[7]
  uptake in M21− cells as compared to 623-Tamra control: slightly greater uptake
αvβ3
  level of surface αvβ3 expression: no effect
αvβ3; listed as RGD-623 conjugate
  level of surface αvβ3 expression: lack of down-regulation of αvβ3
A375SM-Luc705-B cells [1]
  co-localization with dextran: Substantial overlap
  co-localization with transferrin: no overlap
  co-localization with transferrin or dextran markers: Substantial overlap
A375SM-Luc705-B cells [1]; [10]
  co-localization with dextran: significant co-localization
  co-localization with transferrin: no co-localization
  co-localization with transferrin or dextran markers: substantial co-localization
A375SM-Luc705-B cells [1]; between 2 and 6 h, fixed permeabilized cells, 50 nM
  co-localization with caveolin-1: significant co-localization
A375SM-Luc705-B cells [1]; early (6 h), fixed cells, 50 nM
  co-localization with αvβ3: Early co-localization
A375SM-Luc705-B cells [1]; fixed cells
  co-localization with other markers (EAA1, LAMP1, clathrin): No significant co-localization
A375SM-Luc705-B cells [1]; late (24 h), fixed cells, 50 nM
  co-localization with trans-Golgi marker TG230: some co-loacalization
A375SM-Luc705-B cells [1]; [9]
  cellular uptake seen by confocal microscopy: substantial cellular uptake was observed
A375SM-Luc705-B cells [1]; living cells, 200 nM, complex 100 nM, listed as RGD-623-Tamra conjugate
  nuclear fluorescence: no readily observable nuclear fluorescence; also recorded: generally free of fluorescence
A375SM-Luc705-B cells [2]; concentration range needed for splice correction
  tolerability by cells: well-tolerated by cells
A375SM-Luc705-B cells [2]
  short-term toxicity (viable cells): little effect
A375SM-Luc705-B cells [2]; higher concentrations
  cell loss: did not result in significant cell loss
  cell rounding: Some cell rounding was observed
[8]
  re-dissolution in sterile water: re-dissolved in sterile water without any difficulty
